The values below come from patent US6689777B2 (Kenneth S. Warren Institute, priority 2001, dated 2004).

Counter-ions that a name gives are not always drawn. Like-named read-outs stand apart in the source and are kept apart here. Bounds are passed on as bounds.

One assay has as its system P. falciparum. Nature of the assay: P. falciparum growth in culture ([3H]-hypoxanthine incorporation). Type of assay: cell-based. Conditions: Plasmodium falciparum, read-out: IC50 vs. P. falc.
A further assay concerns synthetic hemozoin. Nature of the assay: Depolymerization of synthetic hemozoin in vitro. It is filed as biochemical. Conditions: 50 mM test compound, acetate buffer pH 5.0, 37° C., 16 hours. The procedure: This activity is evaluated by incubating a suspension of monomer-free hemozoin at 37° C. with compounds of the present invention for 16 hours. After incubation, hemozoin is separated from any solubilized heme and soluble heme oligomers, the oligomers depolymerized, and the heme present in the supernatants determined.
The synthesis of synthetic hemozoin is carried out as previously described (26). In brief, 60 μmoles of hematin was dissolved in 8 ml of 0.1N NaOH. Following dissolution 49 mmoles of glacial acetic acid was added and the suspension heated at 70° C. overnight. The precipitate was then washed extensively with LPS-free water. In order to remove unreacted heme the precipitate was extracted with 0.1M sodium bicarbonate (pH 9.1) for three hours. The remaining insoluble material was recovered by centrifugation, resuspended in EtOH and transferred to sterile Eppendorf tubes. The material was washed several times in EtOH and finally resuspended in LPS-free double-distilled H2O. The hemozoin preparation was then tested for endotoxin by using the Limulus Amebocyte Lysate test following manufacturer's instructions. Although the preparation of LPS-free hemozoin from native or synthetic sources is not critical for in vitro depolymerization studies, it is critical for studies involving monocytes and animals (see Examples below). Small amounts of LPS can evoke a considerable cytokine response and interfere with interpretation of results. The amount of heme in the final product was determined from a small aliquot using the pyridine-hemochrome method as previously described (26). The preparations are stored at 4° C. until used.
A suspension of monomer-free hemozoin (equivalent to 2 mM free heme) as prepared above was incubated at 37° C. with […] test compound in total volume of 500 μl in acetate buffer (pH: 5.0) in siliconized Eppendorf tubes (Brinkmann Instruments, Westbury, N.Y.) for 16 hours. A control sample containing distilled H2O instead of hemozoin was included. The samples were centrifuged at 14,000 rpm (Eppendorf centrifuge model 5415C, Brinkmann Instruments, Westbury, N.Y.) for 20 min; then 225 μl supernatant was diluted in 175 μl acetate buffer (pH 5.0). Another 225 μl was added to 175 μl 0.5 M NaOH to dissolve possible oligomeric depolymerization products to monomers. Half of the pellet was washed twice for 2.5 hr in 200 μl 2.5% SDS (v/v) in dH2O, the other half was washed twice in 200 μl HCO3^− buffer (pH: 9.1). Both sample supernatants and SDS and HCO3^− buffer supernatants were centrifuged 14,000 rpm for 20 min. and supernatants were added to 10 μl sodium dithionite (200 mg/ml dH2O) to reduce the heme monomers in solution to Fe^2+. All samples were measured in triplicate at 540 nm (Model UV1601 spectrophotometer, Shimradzu Corp, Columbia, Md.). The OD obtained from the blind sample was subtracted from the OD of the hemozoin containing sample.

[1] abbreviates: Table 3, naphthothiazolium salts, in culture.
Where [2] appears, read: Table 1, aryl monoguanylhydrazones, growth in culture.

`Cc1c(O)c2ccccc2c2c1sc(Nc1ccccc1)[n+]2C.[Cl-]` [1,2-dihydro-1,4-dimethyl-2-(phenylimino)naphtho[1,2-d]thiazol-5-ol monohydrochloride]: in the assay with P. falciparum (setting [1]), the IC50 (in general, the concentration that gives 50% inhibition) was more than 10 µM. In the assay with synthetic hemozoin (Table 3), the “% depol. hemoz.” value came out at 0.0%.

Consider `Cc1c(O)c2ccccc2c2c1sc(NCCO)[n+]2C.[Cl-]` [1,2-dihydro-2-[(2-hydroxyethyl)imino]-1,4-dimethylnaphtho[1,2-d]thiazol-5-ol monohydrochloride], for which the half-maximal inhibitory concentration (IC50) with P. falciparum (setting [1]) was determined as 1.4 µM. Also, the “% depol. hemoz.” value in the assay with synthetic hemozoin (Table 3) was 3.1%.

Regarding `C=CCNc1sc2c(C)c(O)c3ccccc3c2[n+]1CC=C.[Cl-]` [1,2-dihydro-4-methyl-1-(2-propenyl)-2-(2-propenylimino)naphtho[1,2-d]thiazol-5-ol monohydrochloride], the IC50 in the assay on P. falciparum (setting [1]) came out at 6 µM. For the same compound, the “% depol. hemoz.” value in the assay with synthetic hemozoin (Table 3) is 4.8%.

Consider `Cc1c(O)c2ccccc2c2nc(Nc3ccccc3)sc12.Cl` [1,2-dihydro-4-methyl-2-(phenylimino)naphtho[1,2-d]thiazol-5-ol monohydrochloride], for which the IC50 in the assay with P. falciparum (setting [1]) is 4.2 µM. In addition, the “% depol. hemoz.” value with synthetic hemozoin (Table 3) is 0.0%.

On to `CCNc1sc2c(C)c(O)c3ccccc3c2[n+]1CC.[Cl-]` [1-ethyl-2-(ethylimino)-1,2-dihydro-4-methylnaphtho[1,2-d]thiazol-5-ol monohydrochloride], for which the IC50 in the assay with P. falciparum (setting [1]) worked out at 2.5 µM. Besides, the “% depol. hemoz.” value with synthetic hemozoin (Table 3) came out at 2.4%.

As for `Cl.Cl.N=C(N)NN=C1CCC(=NNC(=N)N)CC1` [2,2′-(1,4-cyclohexanediylidene)bis(hydrazinecarboximidamide) dihydrochloride], in the assay on P. falciparum (Table 4, in culture), the IC50 was 2 µM. Besides, the “% depol. hemoz.” value in the assay with synthetic hemozoin (Table 4) was 0%.

On to `C/C(=N\NC(=O)CN(C)C)c1cccc(/C(C)=N/NC(=O)CN(C)C)n1.Cl.Cl` [2,6-bis[1-[[(dimethylamino)acetyl]hydrazono]ethyl]pyridine dihydrochloride], for which, in the assay on P. falciparum (Table 4, in culture), the 50% inhibitory concentration (IC50) stood at 1.5 µM. For the same compound, the “% depol. hemoz.” value with synthetic hemozoin (Table 4) was 0%.

On to `Cc1c(O)c2ccccc2c2c1sc(NC1CCCCC1)[n+]2CCO.[Cl-]` [2-(cyclohexylimino)-5-hydroxy-4-methylnaphtho[1,2-d]thiazole-1(2H)-ethanol monohydrochloride], for which, in the assay with P. falciparum (setting [1]), the IC50 was found to be 1 µM. Moreover, the “% depol. hemoz.” value in the assay with synthetic hemozoin (Table 3) stood at 0.4%.

As to `CC(=NNC(=N)N)c1ccc(OCc2ccccc2)c(C)c1O.Cl` [2-[1-(4-benzyloxy-2-hydroxy-3-methylphenyl)ethylidene]hydrazinecarboximidamide hydrochloride], the IC50 in the assay on P. falciparum (setting [2]) is 1.33 µM. Moreover, in the assay on synthetic hemozoin (Table 1), the “% depol. hemoz.” value is given as 1.9%.

For `CC(CCC1=C(C)C(=O)c2ccccc2C1=O)=NNC(=N)N.Cl` [2-[3-(1,4-dihydro-1,4-dioxo-3-methyl-2-naphthalenyl)-1-methylpropylidene]hydrazinecarboximidamide hydrochloride], in the assay with P. falciparum (Table 4, in culture), the IC50 is 1.3 µM. Moreover, the “% depol. hemoz.” value with synthetic hemozoin (Table 4) stood at 0.1%.

For the compound `CC1=CC(=O)c2cc(CC=NNC(=N)N)ccc2C1=O.Cl` [2-[(1,4-dihydro-1,4-dioxo-3-methyl-7-naphthalenyl)ethylidene]hydrazinecarboximidamide hydrochloride], the IC50 with P. falciparum (setting [2]) was 1.8 µM. Further, the “% depol. hemoz.” value in the assay with synthetic hemozoin (Table 1) is 0.4%.

Consider `N=C(N)NN=CCc1ccc2ccccc2c1O` [2-[(1-hydroxy-2-naphthyl)ethylidene]hydrazinecarboximidamide hydrochloride], for which the IC50 in the assay on P. falciparum (setting [2]) came out at 6 µM.

As for `Cl.N=C(N)NN=Cc1cccc(O)c1O` [2-[(2,3-dihydroxyphenyl)methylene]hydrazinecarboximidamide hydrochloride], the half-inhibitory concentration (IC50) in the assay on P. falciparum (setting [2]) was more than 10 µM. For the same compound, the “% depol. hemoz.” value in the assay with synthetic hemozoin (Table 1) worked out at 4.1%.

For the compound `COc1ccc(C=NNC(=N)N)c(O)c1` [2-[(2-hydroxy-4-methoxyphenyl)methylene]hydrazinecarboximidamide hydrochloride], in the assay on P. falciparum (setting [2]), the IC50 was found to be 1 µM.

On to `COc1ccc(O)c(C=NNC(=N)N)c1.Cl` [2-[(2-hydroxy-5-methoxyphenyl)methylene]hydrazinecarboximidamide hydrochloride], for which the IC50 in the assay with P. falciparum (setting [2]) stood at 4.4 µM. The “% depol. hemoz.” value with synthetic hemozoin (Table 1) came to 0.9%.

Regarding `Cl.N=C(N)NN=CCc1ccccc1O` [2-[(2-hydroxyphenyl)ethylidene]hydrazinecarboximidamide hydrochloride], in the assay on P. falciparum (setting [2]), the IC50 is more than 10 µM. In addition, the “% depol. hemoz.” value in the assay with synthetic hemozoin (Table 1) was determined as 0.4%.

`Cl.N=C(N)NN=Cc1ccccc1O` [2-[(2-hydroxyphenyl)methylene]hydrazinecarboximidamide hydrochloride]: the IC50 with P. falciparum (setting [2]) came to 3.5 µM. Further, the “% depol. hemoz.” value with synthetic hemozoin (Table 1) amounted to 3.5%.

With `Cl.N=C(N)NN=CCc1ccc(O)c(O)c1` [2-[(3,4-dihydroxyphenyl)ethylidene]hydrazinecarboximidamide hydrochloride], the IC50 in the assay with P. falciparum (setting [2]) was more than 10 µM. Besides, the “% depol. hemoz.” value with synthetic hemozoin (Table 1) amounted to 0.5%.

As for `N=C(N)NN=Cc1ccnc2ccccc12` [2-[(4-quinolinyl)methylene]hydrazinecarboximidamide hydrochloride], the IC50 with P. falciparum (setting [2]) was 3.4 µM.

Turning to `C=CCNc1nc2c(s1)c(C)c(O)c1ccccc12.Cl` [4-methyl-2-(2-propenylamino)naphtho[1,2-d]thiazol-5-ol monohydrochloride], the IC50 in the assay with P. falciparum (setting [1]) amounted to 6.3 µM. Further, the “% depol. hemoz.” value in the assay with synthetic hemozoin (Table 3) turned out to be 0.4%.
